Measurements reported in patent publication US11512053B2, “Arginine methyltransferase inhibitors and uses thereof” (priority 2013, dated 2022).
Read-outs that look alike come from different tables or passages of the source.

Target: full-length human PRMT6 (Flag- and His-tagged) (Homo sapiens, UniProt Q96LA8)
Assay: PRMT6 Biochemical Assay (3H-SAM Flashplate, peptide substrate)
Conditions: read-out: Biochemical IC50 PRMT6
From the text: General Materials. S-adenosylmethionine (SAM), S-adenosylhomocysteine (SAH), bicine, Tween20, dimethylsulfoxide (DMSO), bovine skin gelatin (BSG), sodium butyrate and Tris(2-carboxyethyl)phosphine hydrochloride solution (TCEP) were purchased from Sigma-Aldrich at the highest level of purity possible. ^3H-SAM was purchase from American Radiolabeled Chemicals with a specific activity of 80 Ci/mmol. 384-well streptavidin Flashplates were purchased from PerkinElmer.
Substrates. Peptide representative of human histone H4 residues 36-50 was synthesized with an N-terminal linker-affinity tag motif and a C-terminal amide cap by 21st Century Biochemicals. The peptide was purified by high-performance liquid chromatography (HPLC) to greater than 95% purity and confirmed by liquid chromatography mass spectrometry (LC-MS). The sequence was Biot-Ahx-[…]-amide and contained a monomethylated lysine at position 44 (SEQ ID NO.:5).
Molecular Biology: Full-length human PRMT6 (NM_018137.2) transcript clone was amplified from an HEK 293 cDNA library, incorporating a flanking 5′ sequence encoding a FLAG tag ([…]) (SEQ ID NO.:6) fused directly to Ser 2 of PRMT6 and a 3′ sequence encoding a hexa His sequence (HHHHHH) (SEQ ID NO.:17) fused directly to Asp 375. The amplified gene was subcloned into pFastBacMam (Viva Biotech).
Protein Expression. Recombinant baculovirus were generated according to Bac-to-Bac kit instructions (Life Technologies). […] Infections were carried out at 37° C. for 48 hours, harvested by centrifugation, and stored at −80° C. for purification.
Protein Purification. […] Column was washed with 20 mM imidazole in the same buffer and Flag-PRMT6-His was eluted with 150 mM imidazole. Pooled fractions were dialysed against buffer N^1-A and further purified by anti-flag M2 affinity chromatography. Flag-PRMT6-His was eluted with 200 ug/ml FLAG peptide in the same buffer. Pooled fractions were dialysed in 20 mM Tris, 150 mM NaCl, 10% glycerol and 5 mM β-mercaptoethanol, pH 7.8. The purity of recovered protein was 95%.
General Procedure for PRMT6 Enzyme Assays on Peptide Substrates. The assays were all performed in a buffer consisting of 20 mM Bicine (pH=7.6), 1 mM TCEP, 0.005% BSG, and 0.002% Tween 20, prepared on the day of use. Compounds in 100% DMSO (1 ul) were spotted into a polypropylene 384-well V-bottom plates (Greiner) using a Platemate Plus outfitted with a 384-channel head (Thermo Scientific). DMSO (1 ul) was added to Columns 11, 12, 23, 24, rows A-H for the maximum signal control and 1 ul of SAH, a known product and inhibitor of PRMT6, was added to columns 11, 12, 23, 24, rows I-P for the minimum signal control. A cocktail (40 ul) containing the PRMT6 enzyme was added by Multidrop Combi (Thermo-Fisher). The compounds were allowed to incubate with PRMT6 for 30 min at room temperature, then a cocktail (10 ul) containing SAM and peptide was added to initiate the reaction (final volume=51 ul). The final concentrations of the components were as follows: PRMT6 was 1 nM, ^3H-SAM was 200 nM, non-radiolabeled SAM was 250 nM, peptide was 75 nM, SAH in the minimum signal control wells was 1 mM, and the DMSO concentration was 2%. The assays were stopped by the addition of non-radiolabeled SAM (10 ul) to a final concentration of 400 uM, which dilutes the ^3H-SAM to a level where its incorporation into the peptide substrate is no longer detectable. 50 ul of the reaction in the 384-well polypropylene plate was then transferred to a 384-well Flashplate and the biotinylated peptides were allowed to bind to the streptavidin surface for at least 1 hour before being washed once with 0.1% Tween20 in a Biotek ELx405 plate washer. The plates were then read in a PerkinElmer TopCount plate reader to measure the quantity of ^3H-labeled peptide bound to the Flashplate surface, measured as disintegrations per minute (dpm) or alternatively, referred to as counts per minute (cpm). […]

[1] = single experiment or average of multiple experiments

Chain of full-length human PRMT6 (Flag- and His-tagged) (Q96LA8 with tags, fused parts or gaps): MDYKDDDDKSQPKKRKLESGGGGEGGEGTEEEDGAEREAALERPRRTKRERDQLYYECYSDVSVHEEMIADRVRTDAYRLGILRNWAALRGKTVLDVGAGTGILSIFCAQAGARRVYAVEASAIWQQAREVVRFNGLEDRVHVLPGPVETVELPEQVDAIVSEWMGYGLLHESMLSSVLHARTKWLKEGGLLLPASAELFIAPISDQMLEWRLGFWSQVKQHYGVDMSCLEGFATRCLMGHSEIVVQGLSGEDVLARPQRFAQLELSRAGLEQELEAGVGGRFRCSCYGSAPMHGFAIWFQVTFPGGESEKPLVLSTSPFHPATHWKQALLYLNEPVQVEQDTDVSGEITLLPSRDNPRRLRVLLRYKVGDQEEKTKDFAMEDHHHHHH

Row | SMILES | IC50 [nM] | IC50 [1] [nM]
1 | CNCCN(C)Cc1c[nH]nc1C1CCC2(CC1)OCCCO2 [Compound 160] | 101 to 1000 | 112
2 | CCN1C(=O)N(C)CC12CCC(c1n[nH]cc1CN(C)CCNC)CC2 (stereo not drawn) [Compound 162] | < 100 | 61
3 | CNCCN(C)Cc1c[nH]nc1C1CCC2(CC1)CCN(CCC(C)C)C2=O (stereo not drawn) [Compound 163] | < 100 | 65.7
4 | CNCCN(C)Cc1c[nH]nc1C1CCC2(CC1)CC(=O)N(CCC(C)C)C2 (stereo not drawn) [Compound 165] | 101 to 1000 | 120
5 | CNCCN(C)Cc1c[nH]nc1[C@H]1CC[C@H](COC)CC1 [Compound 167] | < 100 | 31.5
6 | CNCCN(C)Cc1c[nH]nc1C1CCC(CC(C)C)CC1 (stereo not drawn) [Compound 169] | < 100 | 17.8
7 | CNCCN(C)Cc1c[nH]nc1C1CCC2(CC1)C(=O)N(C)C(=O)N2C (stereo not drawn) [Compound 171] | < 100 | 41.1
8 | CNCCN(C)Cc1c[nH]nc1C1CCC2(CC1)CN(C)C(=O)N2C (stereo not drawn) [Compound 172] | < 100 | 45.8
9 | CNCCN(C)Cc1c[nH]nc1C1CCC(CCOC)(CCOC)CC1 [Compound 174] | < 100 | 84.4
10 | CNCCN(C)Cc1c[nH]nc1C1CCC2(CC1)NC(=O)NC2=O (stereo not drawn) [Compound 175] | < 100 | 37.6
11 | CNCCN(C)Cc1c[nH]nc1C1CCC2(CCOCC2)CC1 [Compound 178] | < 100 | 15.7
12 | CNCCN(C)Cc1c[nH]nc1[C@H]1CC[C@@H](C(C)C)CC1 [Compound 181] | < 100 | 27.9

The next lines start with the values.

Row | IC50 [nM] | IC50 [1] [nM] | SMILES
13 | < 100 | 60.8 | CNCCN(C)Cc1c[nH]nc1[C@H]1CC[C@]2(CC1)CC(=O)N(CC(C)C)C2 [Compound 155]
14 | < 100 | 57.8 | CNCCN(C)Cc1c[nH]nc1[C@H]1CC[C@@]2(CC1)CC(=O)N(CC(C)C)C2 [Compound 156]
15 | < 100 | 47.9 | CNCCN(C)Cc1c[nH]nc1C1CCC2(CC1)CC(=O)N(C)C2 (stereo not drawn) [Compound 157]
16 | < 100 | 53.8 | CCOC1CC(OCC)CC2(CCC(c3n[nH]cc3CN(C)CCNC)CC2)C1 (stereo not drawn) [Compound 159]
17 | < 100 | 72.9 | CNCCN(C)Cc1c[nH]nc1C1CCC2(CC1)C(=O)NC(=O)N2C (stereo not drawn) [Compound 161]
18 | < 100 | 70.8 | CNCCN(C)Cc1c[nH]nc1C1CCC2(CC1)CCN(CC(C)C)C2=O (stereo not drawn) [Compound 164]
19 | < 100 | 48.6 | CNCCN(C)Cc1c[nH]nc1[C@H]1CC[C@@H](COC)CC1 [Compound 166]
20 | < 100 | 45.1 | CCOC1CC2(CCC(c3n[nH]cc3CN(C)CCNC)CC2)CC1OCC (stereo not drawn) [Compound 168]
21 | < 100 | 57.8 | CNCCN(C)Cc1c[nH]nc1C1CCC2(CC1)NC(=O)N(C)C2=O (stereo not drawn) [Compound 170]
22 | < 100 | 89.9 | CNCCN(C)Cc1c[nH]nc1C1=CCC(CCOC)(CCOC)CC1 [Compound 173]
23 | < 100 | 36.4 | CNCCN(C)Cc1c[nH]nc1C1CCC2(CCNC2=O)CC1 (stereo not drawn) [Compound 176]
24 | 101 to 1000 | 113 | CNCCN(C)Cc1c[nH]nc1C1CCC2(CC1)OCCO2 [Compound 177]
25 | < 100 | 62.9 | CNCCN(C)Cc1c[nH]nc1C1CC(C)OC(C)C1 (stereo not drawn) [Compound 179]
26 | < 100 | 14.7 | CNCCN(C)Cc1c[nH]nc1[C@H]1CC[C@H](C(C)C)CC1 [Compound 180]
27 | < 100 | 73.5 | CNCCN(C)Cc1c[nH]nc1C1CCC(O)C2(CCCC2)C1 (stereo not drawn) [Compound 182, 9-[4-({methyl[2-(methylamino)ethyl]amino}methyl)-1H-pyrazol-3-yl]spiro[4.5]decan-6-ol]
28 | < 100 | 35.2 | CNCCN(C)Cc1c[nH]nc1C1CCC(C)(C)C(O)C1 (stereo not drawn) [Compound 185, 2,2-dimethyl-5-[4-({methyl[2-(methylamino)ethyl]amino}methyl)-1H-pyrazol-3-yl]cyclohexan-1-ol]
29 | 101 to 1000 | 107 | CNCCN(C)Cc1c[nH]nc1[C@H]1CC[C@H](OCCOc2ccc(OC)cc2)CC1 [Compound 186]
30 | 101 to 1000 | 261 | CNCCN(C)Cc1c[nH]nc1[C@H]1CC[C@H](OCCOc2ccccc2)CC1 [Compound 187]
